This passage reports IC50 results from US20260325533A1, “CDK INHIBITOR COMPOUNDS” (ALEKSIA THERAPEUTICS, INC., priority 2023, published 2026).

Each structure is given as a SMILES string. Like-named read-outs stand apart in the source and are kept apart here.

Common to all, as to format: biochemical
In one experiment the target is CDK2/CCNE1 (Homo sapiens, UniProt P24941). As to the kind of experiment: CDK2 homogeneous time-resolved fluorescence (HTRF) kinase assay. To be noted: CDK2/CCNE. Put shortly: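 An HTRF format measures CDK2/CCNE1 (3 nM) phosphorylating a 4E-BP1 Thr37/46 peptide at high (1 mM) ATP. Reactions run one hour at 23 °C, then EDTA-quenched and probed with Eu-labelled phospho-specific antibody.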
In general terms: TR-FRET usually uses a lanthanide donor and a delayed reading to cut background.

The next experiment concerns the target CDK1/CCNB1 (Homo sapiens, UniProt P06493). In words: CDK1 homogeneous time-resolved fluorescence (HTRF) kinase assay. To be noted: CDK1/CCNB. Put shortly:
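0.5 nM CDK1/CCNB1 was preincubated 20 min at 23 °C with compound in HEPES pH-unspecified buffer (MgCl2, EGTA, DTT, Tween 20), then reacted 60 min with 1 mM ATP and 50 nM ULight-4E-BP1 (Thr37/46) peptide. EDTA-stopped reactions were detected with 2 nM Eu-anti-phospho antibody; IC50 from 11-point half-log titrations.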

The next experiment has as its target CDK4/CCND3 (Homo sapiens, UniProt P11802). In words: CDK4 homogeneous time-resolved fluorescence (HTRF) kinase assay. To be noted: CDK4/CCND. Summed up: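 IC50s derive from Lance 665 nm or 665/615 nm signals in 11-point, half-log dose series (top 10 μM, 1% DMSO). The enzyme, 1.5 nM CDK4/CCND3, phosphorylates 50 nM ULight-4E-BP1 peptide with 1 mM ATP over 60 min at 23 °C.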

For a further experiment, the target named is CDK6/CCND1 (Homo sapiens, UniProt Q00534). In words: CDK6 homogeneous time-resolved fluorescence (HTRF) kinase assay. To be noted: CDK6/CCND. Put shortly: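 Assay conditions: HEPES buffer containing 10 mM MgCl2, 1 mM EGTA, 2 mM DTT, 0.01% Tween 20; 1 nM CDK6/CCND1, 50 nM peptide substrate, 1 mM ATP. Detection after 60 min reaction used 2 nM europium antibody with 340 nm excitation. Potency fitted from half-log series, 11 points.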
CDK6/CCND1, sequence (Q00534 whole entry): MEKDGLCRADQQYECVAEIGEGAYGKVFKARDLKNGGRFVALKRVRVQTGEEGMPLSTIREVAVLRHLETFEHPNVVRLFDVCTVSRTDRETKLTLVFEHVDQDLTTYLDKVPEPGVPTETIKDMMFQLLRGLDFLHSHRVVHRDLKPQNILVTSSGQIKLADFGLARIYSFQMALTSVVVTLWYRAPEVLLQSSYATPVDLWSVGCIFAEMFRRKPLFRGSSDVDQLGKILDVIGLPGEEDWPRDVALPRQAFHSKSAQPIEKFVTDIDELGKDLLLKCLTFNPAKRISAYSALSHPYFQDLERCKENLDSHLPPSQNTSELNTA
CDK6/CCND1, sequence (P24385 whole entry partner): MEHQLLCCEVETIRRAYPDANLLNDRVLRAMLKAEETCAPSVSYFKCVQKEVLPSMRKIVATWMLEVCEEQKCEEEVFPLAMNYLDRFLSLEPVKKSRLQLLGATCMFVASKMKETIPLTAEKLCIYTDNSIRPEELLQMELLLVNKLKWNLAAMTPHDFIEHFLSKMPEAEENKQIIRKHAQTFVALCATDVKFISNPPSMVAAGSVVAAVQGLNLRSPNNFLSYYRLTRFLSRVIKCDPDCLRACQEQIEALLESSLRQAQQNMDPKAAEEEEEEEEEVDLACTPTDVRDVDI

The mark [1] stands for this setting: >250 nM, read-out: CDK1/CCNB IC50 >250 nM.
Setting [2] is: >250 nM, read-out: CDK4/CCND IC50, >250 nM.
The mark [3] stands for this setting: >250 nM, 1 mM ATP, read-out: CDK6/CCND IC50, >250 nM.
[4] abbreviates: 25-250 nM, read-out: CDK2/CCNE IC50, 25-250 nM.
[5] abbreviates: <25 nM, read-out: CDK2/CCNE IC50, <25 nM.
The mark [6] stands for this setting: 25-250 nM marked x, read-out: CDK2/CCNE IC50 25-250 nM.
The mark [7] stands for this setting: >250 nM marked x, read-out: CDK1/CCNB IC50 >250 nM.
Setting [8] is: 25-250 nM marked x, read-out: CDK4/CCND IC50 25-250 nM.
The mark [9] stands for this setting: 25-250 nM marked x, read-out: CDK6/CCND IC50 25-250 nM.
Setting [10] is: <25 nM, read-out: CDK6/CCND IC50 <25 nM.
The mark [11] stands for this setting: <25 nM, read-out: CDK2/CCNE IC50 <25 nM.
[12] abbreviates: 25-250 nM marked x, read-out: CDK1/CCNB IC50 25-250 nM.
[13] abbreviates: <25 nM, read-out: CDK4/CCND IC50 <25 nM.
Setting [14] is: >250 nM marked x, read-out: CDK4/CCND IC50 >250 nM.
The mark [15] stands for this setting: >250 nM marked x, read-out: CDK6/CCND IC50 >250 nM.

CDK4/CCND3, sequence (P11802 whole entry): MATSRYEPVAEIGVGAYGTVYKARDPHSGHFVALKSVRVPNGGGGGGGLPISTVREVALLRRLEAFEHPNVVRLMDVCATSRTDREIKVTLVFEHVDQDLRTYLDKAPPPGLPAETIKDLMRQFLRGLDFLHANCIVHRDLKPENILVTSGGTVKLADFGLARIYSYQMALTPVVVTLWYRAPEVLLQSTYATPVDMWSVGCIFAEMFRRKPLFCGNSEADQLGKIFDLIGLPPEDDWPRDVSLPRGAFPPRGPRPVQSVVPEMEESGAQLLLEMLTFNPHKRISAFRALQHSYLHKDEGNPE
CDK4/CCND3, sequence (P30281 whole entry partner): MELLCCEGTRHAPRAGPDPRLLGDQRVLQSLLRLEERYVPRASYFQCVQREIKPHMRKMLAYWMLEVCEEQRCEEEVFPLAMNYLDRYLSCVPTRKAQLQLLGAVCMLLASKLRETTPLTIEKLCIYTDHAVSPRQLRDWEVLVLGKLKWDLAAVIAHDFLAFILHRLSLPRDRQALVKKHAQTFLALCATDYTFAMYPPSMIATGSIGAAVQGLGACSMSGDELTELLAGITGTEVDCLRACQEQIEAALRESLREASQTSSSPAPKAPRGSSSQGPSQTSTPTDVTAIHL
CDK1/CCNB1, sequence (P06493 whole entry): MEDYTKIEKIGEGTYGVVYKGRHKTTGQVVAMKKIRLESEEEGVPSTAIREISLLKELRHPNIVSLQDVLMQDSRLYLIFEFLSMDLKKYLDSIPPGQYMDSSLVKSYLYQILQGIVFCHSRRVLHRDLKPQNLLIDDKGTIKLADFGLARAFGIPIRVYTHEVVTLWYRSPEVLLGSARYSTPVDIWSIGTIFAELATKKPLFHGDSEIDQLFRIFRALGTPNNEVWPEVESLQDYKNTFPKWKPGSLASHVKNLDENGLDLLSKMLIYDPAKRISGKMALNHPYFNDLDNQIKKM
CDK1/CCNB1, sequence (P14635 whole entry partner): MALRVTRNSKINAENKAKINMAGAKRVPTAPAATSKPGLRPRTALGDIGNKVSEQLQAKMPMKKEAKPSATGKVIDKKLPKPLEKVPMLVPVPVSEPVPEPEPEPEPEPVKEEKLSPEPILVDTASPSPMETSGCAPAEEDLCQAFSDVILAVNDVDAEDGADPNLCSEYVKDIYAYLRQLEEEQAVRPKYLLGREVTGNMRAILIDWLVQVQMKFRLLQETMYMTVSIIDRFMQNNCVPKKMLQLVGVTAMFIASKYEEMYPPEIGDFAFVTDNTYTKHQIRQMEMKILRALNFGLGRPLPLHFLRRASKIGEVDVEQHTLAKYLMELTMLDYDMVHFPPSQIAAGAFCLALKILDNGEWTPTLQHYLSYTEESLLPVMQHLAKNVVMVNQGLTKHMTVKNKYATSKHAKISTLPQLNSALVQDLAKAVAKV

Turning to `CN1CCN(S(=O)(=O)c2ccc(Nc3cc4c(C#Cc5ccc(C#N)cc5)nccc4cn3)cc2)CC1` [Ex 933, 4-((7-((4-((4-methylpiperazin-1-yl)sulfonyl)phenyl)amino)-2,6-naphthyridin-1-yl)ethynyl)benzonitrile], the IC50 at CDK2/CCNE1 (>250 nM, read-out: CDK2/CCNE IC50, >250 nM) is more than 0.25 µM; at CDK1/CCNB1 (setting [1]), more than 0.25 µM; on CDK4/CCND3 (setting [2]) it was more than 0.25 µM; at CDK6/CCND1 (setting [3]) it was more than 0.25 µM.

On to `N#Cc1ccc(C#Cc2nccc3cnc(Nc4ccc(S(=O)(=O)N5CCOCC5)cc4)cc23)cc1` [Ex 934, 4-((7-((4-(morpholinosulfonyl)phenyl)amino)-2,6-naphthyridin-1-yl)ethynyl)benzonitrile], for which the IC50 at CDK2/CCNE1 (setting [4]) is 0.025 to 0.25 µM; at CDK1/CCNB1 (setting [1]) it was more than 0.25 µM; on CDK4/CCND3 (setting [2]) it was more than 0.25 µM; at CDK6/CCND1 (setting [3]), more than 0.25 µM.

Take `N#Cc1ccc(C#Cc2nccc3cnc(Nc4ccc(S(=O)(=O)Nc5ccccn5)cc4)cc23)cc1` [Ex 935, 4-((5-((4-cyanophenyl)ethynyl)-2,6-naphthyridin-3-yl)amino)-N-(pyridin-2-yl)benzenesulfonamide]: the IC50 was 0.025 to 0.25 µM on CDK2/CCNE1 (setting [4]), more than 0.25 µM on CDK1/CCNB1 (setting [1]), more than 0.25 µM on CDK4/CCND3 (setting [2]) and more than 0.25 µM on CDK6/CCND1 (setting [3]).

Turning to `Cc1cc(C)nc(NS(=O)(=O)c2ccc(Nc3cc4c(C#Cc5ccc(C#N)cc5)nccc4cn3)cc2)n1` [Ex 936, 4-((5-((4-cyanophenyl)ethynyl)-2,6-naphthyridin-3-yl)amino)-N-(4,6-dimethylpyrimidin-2-yl)benzenesulfonamide], the IC50 at CDK2/CCNE1 (setting [5]) was less than 0.025 µM; on CDK1/CCNB1 (setting [1]), more than 0.25 µM; at CDK4/CCND3 (setting [2]), more than 0.25 µM; at CDK6/CCND1 (setting [3]), more than 0.25 µM.

For `Cc1c(-c2nccc3cnc(Nc4ccc(C(=O)Nc5ccccc5)cc4)cc23)ccc2c1cnn2CC(C)(C)O` [Ex 937, 4-((5-(1-(2-hydroxy-2-methylpropyl)-4-methyl-1H-indazol-5-yl)-2,6-naphthyridin-3-yl)amino)-N-phenylbenzamide], the IC50 was less than 0.025 µM on CDK2/CCNE1 (setting [5]), more than 0.25 µM on CDK1/CCNB1 (setting [1]), more than 0.25 µM at CDK4/CCND3 (setting [2]) and more than 0.25 µM at CDK6/CCND1 (setting [3]).

As for `Cc1c(-c2nccc3cnc(Nc4ccc(NS(C)(=O)=O)cc4)cc23)ccc2c1cnn2CC(C)(C)O` [Ex 938, N-(4-((5-(1-(2-hydroxy-2-methylpropyl)-4-methyl-1H-indazol-5-yl)-2,6-naphthyridin-3-yl)amino)phenyl)methanesulfonamide], the IC50 at CDK2/CCNE1 (setting [5]) is less than 0.025 µM; at CDK1/CCNB1 (25-250 nM, read-out: CDK1/CCNB IC50, 25-250 nM) it was 0.025 to 0.25 µM; on CDK4/CCND3 (25-250 nM, read-out: CDK4/CCND IC50, 25-250 nM) it was 0.025 to 0.25 µM; on CDK6/CCND1 (25-250 nM, 1 mM ATP, read-out: CDK6/CCND IC50, 25-250 nM) it was 0.025 to 0.25 µM.

Take `Cc1c(-c2nccc3cnc(Nc4ccnc(OCc5ccccc5)c4)cc23)ccc2c1cnn2CC(C)(C)O` [Ex 939, 1-(5-(7-((2-(benzyloxy)pyridin-4-yl)amino)-2,6-naphthyridin-1-yl)-4-methyl-1H-indazol-1-yl)-2-methylpropan-2-ol]: the IC50 was 0.025 to 0.25 µM at CDK2/CCNE1 (setting [4]), more than 0.25 µM on CDK1/CCNB1 (setting [1]), more than 0.25 µM at CDK4/CCND3 (setting [2]) and more than 0.25 µM at CDK6/CCND1 (setting [3]).

Consider `CS(=O)(=O)Nc1ccc(Nc2cc3c(C#Cc4ccc(C#N)cc4)nccc3cn2)cc1` [Ex 940, N-(4-((5-((4-cyanophenyl)ethynyl)-2,6-naphthyridin-3-yl)amino)phenyl)methanesulfonamide], for which the IC50 was 0.025 to 0.25 µM on CDK2/CCNE1 (setting [4]), more than 0.25 µM on CDK1/CCNB1 (setting [1]), more than 0.25 µM at CDK4/CCND3 (setting [2]) and more than 0.25 µM on CDK6/CCND1 (setting [3]).

As to `COc1ccc(C#Cc2nccc3cnc(Nc4ccc(S(C)(=O)=O)cc4)cc23)cc1` [Ex 941, 5-((4-methoxyphenyl)ethynyl)-N-(4-(methylsulfonyl)phenyl)-2,6-naphthyridin-3-amine], the IC50 at CDK2/CCNE1 (setting [4]) was 0.025 to 0.25 µM; at CDK1/CCNB1 (setting [1]), more than 0.25 µM; at CDK4/CCND3 (setting [2]), more than 0.25 µM; at CDK6/CCND1 (setting [3]), more than 0.25 µM.

Turning to `CS(=O)(=O)c1cccc(Nc2cc3c(C#Cc4ccc(C#N)cc4)nccc3cn2)c1` [Ex 942, 4-((7-((3-(methylsulfonyl)phenyl)amino)-2,6-naphthyridin-1-yl)ethynyl)benzonitrile], the IC50 on CDK2/CCNE1 (setting [4]) is 0.025 to 0.25 µM; at CDK1/CCNB1 (setting [1]) it was more than 0.25 µM; on CDK4/CCND3 (setting [2]), more than 0.25 µM; at CDK6/CCND1 (setting [3]), more than 0.25 µM.

Turning to `Cn1cc(Nc2cc3c(C#Cc4ccc(C#N)cc4)nccc3cn2)cn1` [Ex 943, 4-((7-((1-methyl-1H-pyrazol-4-yl)amino)-2,6-naphthyridin-1-yl)ethynyl)benzonitrile], the IC50 at CDK2/CCNE1 (setting [4]) is 0.025 to 0.25 µM; at CDK1/CCNB1 (setting [1]) it was more than 0.25 µM; at CDK4/CCND3 (setting [2]), more than 0.25 µM; on CDK6/CCND1 (setting [3]) it was more than 0.25 µM.

As for `CS(=O)(=O)N1CCC(Nc2cc3c(N4CCC(O)CC4)nccc3cn2)CC1` [Example 1, 1-(7-((1-(methylsulfonyl)piperidin-4-yl)amino)-2,6-naphthyridin-1-yl)piperidin-4-ol], the IC50 at CDK2/CCNE1 (setting [6]) is 0.025 to 0.25 µM; on CDK1/CCNB1 (setting [7]), more than 0.25 µM; at CDK4/CCND3 (setting [8]) it was 0.025 to 0.25 µM; at CDK6/CCND1 (setting [9]), 0.025 to 0.25 µM.

On to `CS(=O)(=O)N1CCC(Nc2cc3c(N4CCCC4)nccc3cn2)CC1` [Example 2, N-(1-(methylsulfonyl)piperidin-4-yl)-5-(pyrrolidin-1-yl)-2,6-naphthyridin-3-amine], for which the IC50 at CDK2/CCNE1 (setting [6]) is 0.025 to 0.25 µM; on CDK1/CCNB1 (setting [7]), more than 0.25 µM; on CDK4/CCND3 (setting [8]), 0.025 to 0.25 µM; at CDK6/CCND1 (setting [10]), less than 0.025 µM.

In the case of `C=CS(=O)(=O)N1CCC(Nc2cc3c(N4CCCCC4)nccc3cn2)CC1` [Example 3, 5-(piperidin-1-yl)-N-(1-(vinylsulfonyl)piperidin-4-yl)-2,6-naphthyridin-3-amine], the IC50 on CDK2/CCNE1 (setting [11]) is less than 0.025 µM; on CDK1/CCNB1 (setting [12]), 0.025 to 0.25 µM; at CDK4/CCND3 (setting [8]) it was 0.025 to 0.25 µM; at CDK6/CCND1 (setting [9]) it was 0.025 to 0.25 µM.

With `CC(C)c1nccc2cnc(NC3CCN(S(C)(=O)=O)CC3)cc12` [Example 6, 5-isopropyl-N-(1-(methylsulfonyl)piperidin-4-yl)-2,6-naphthyridin-3-amine], the IC50 was less than 0.025 µM at CDK2/CCNE1 (setting [11]), 0.025 to 0.25 µM at CDK1/CCNB1 (setting [12]), less than 0.025 µM at CDK4/CCND3 (setting [13]) and 0.025 to 0.25 µM at CDK6/CCND1 (setting [9]).

Turning to `CC#Cc1nccc2cnc(Nc3ccc(S(C)(=O)=O)cc3)cc12` [Example 7, N-(4-(methylsulfonyl)phenyl)-5-(prop-1-yn-1-yl)-2,6-naphthyridin-3-amine], the IC50 at CDK2/CCNE1 (setting [11]) was less than 0.025 µM; at CDK1/CCNB1 (setting [7]), more than 0.25 µM; at CDK4/CCND3 (setting [14]) it was more than 0.25 µM; at CDK6/CCND1 (setting [15]), more than 0.25 µM.

For `CS(=O)(=O)N1CCC(Nc2cc3c(OCc4ccccc4)nccc3cn2)CC1` [Example 11, 5-(benzyloxy)-N-(1-(methylsulfonyl)piperidin-4-yl)-2,6-naphthyridin-3-amine], the IC50 at CDK2/CCNE1 (setting [6]) is 0.025 to 0.25 µM; on CDK1/CCNB1 (setting [12]), 0.025 to 0.25 µM; on CDK4/CCND3 (setting [13]), less than 0.025 µM; on CDK6/CCND1 (setting [10]), less than 0.025 µM.

On to `C=CS(=O)(=O)c1ccc(Nc2cc3c(N4CCC(C#N)CC4)nccc3cn2)cc1` [Example 15, 1-(7-((4-(vinylsulfonyl)phenyl)amino)-2,6-naphthyridin-1-yl)piperidine-4-carbonitrile], for which the IC50 at CDK2/CCNE1 (setting [6]) is 0.025 to 0.25 µM; on CDK1/CCNB1 (setting [7]), more than 0.25 µM; on CDK4/CCND3 (setting [14]), more than 0.25 µM; at CDK6/CCND1 (setting [15]) it was more than 0.25 µM.

As to `CS(=O)(=O)N1CCC(Nc2cc3c(N4CCCCC4)nc(C=O)cc3cn2)CC1` [Example 18, 7-((1-(methylsulfonyl)piperidin-4-yl)amino)-1-(piperidin-1-yl)-2,6-naphthyridine-3-carbaldehyde], the IC50 at CDK2/CCNE1 (setting [11]) was less than 0.025 µM; at CDK1/CCNB1 (setting [12]) it was 0.025 to 0.25 µM; on CDK4/CCND3 (setting [13]), less than 0.025 µM; on CDK6/CCND1 (setting [10]), less than 0.025 µM.
